Test system: HMG-CoA reductase
Assay: HMG-CoA Reductase Inhibition Assay (in vitro)
Type: biochemical, rat
Settings: relative to compactin, arbitrarily assigned a value of 100; IC50 compared with that of compactin determined simultaneously; tested as sodium salt of dihydroxy acid form
Protocol: The intrinsic HMG-CoA reductase inhibition activity of the claimed compounds is measured in the in vitro protocol published in J. Med. Chem., 28, P. 347-358 (1985) and described below:
Isolation of HMG-CoA Reductase. Male Holtzman Sprague-Dawley rate (225-250 g) were kept on reversed lighting and fed Purina rat chow containing 3% cholestyramine for 7 days preceding their sacrifice by CO2 asphyxiation. Livers were removed 6 hours into the dark cycle and used immediately to prepare microsomes. […]
Test compounds or compactin (after first being converted to the sodium salt of their dihydroxy acid form in situ by addition of 1 N NaOH (1 equiv)) were added to the assay system in 10-μL volumes at multiconcentration levels. […] Five milliliters of Aquasol-2 (New England Nuclear) was added to each vial, and radioactivity was measured in a Packard Tri Carb Prias scintillation counter. IC50 values were determined by plotting percentage inhibition against test compounds concentration and fitting a straight line to the resulting data by using the least-squares method. For estimation of relative inhibitory potencies, compactin was assigned a value of 100 and the IC50 value of the test compound was compared with that of compactin determined simultaneously.

Row | Relative Potency | Substance
1 | 11 | 6(R)-[2-[8(S)-(1-Ethoxycarbonylcyclopropanecarbonyloxy)-2(S),6(R)-dimethyl-1,2,6,7,8,8a (R)-hexahydronaphthyl-1(S)]ethyl]-4(R)-hydroxy-3,4,5,6-tetrahydro-2H-pyran-2-one
2 | 65 | 6(R)-[2-8(S)-(1-Ethoxycarbonylcyclobutanecarbonyloxy)-2(S),6(R)-dimethyl-1,2,6,7,8,8a-(R)-hexahydronaphthyl-1(S)]ethyl]-4(R)-hydroxy-3,4,5,6-tetrahydro-2H-pyrane-2-one

Source: patent publication US4876279A, “Antihypercholesterolemic compounds” (Merck & Co., Inc., priority 1988, dated 1989)
